From PubChem BioAssay (NCI)
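Step 1: Grow cells in 96-well plates. Step 2: Expose to compound for 48 hours at 5 concentrations. Step 3: Interpolate endpoints linearly; if unreached, use highest concentration. GI50 marks 50% less growth. Definition used: TGI = concentration required for complete inhibition of growth.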

What was measured:
Assay in all cases: NCI tumour cell line growth inhibition, 48 h
[1] = test system: A549 NSCLC
[2] = test system: MDA-MB-435
[3] = test system: SN12C renal
[4] = test system: CCRF-CEM leukemia
[5] = test system: HOP-92 NSCLC
[6] = test system: LOX IMVI melanoma
[7] = test system: TK-10 renal
[8] = test system: HCT-15 colon
[9] = test system: UACC-257 melanoma
[10] = test system: NCI/ADR-RES ovarian
[11] = test system: EKVX NSCLC
[12] = test system: SR leukemia
[13] = test system: OVCAR-8 ovarian
[14] = test system: NCI-H226 lung
[15] = test system: SF-295 CNS
[16] = test system: UACC-62 melanoma
[17] = test system: NCI-H522 lung
[18] = test system: SF-268 CNS
[19] = test system: SW-620 colon
[20] = test system: CAKI-1 renal
[21] = test system: SNB-19 CNS
[22] = test system: HCC-2998 colon
[23] = test system: A498 renal
[24] = test system: KM12 colon
[25] = test system: HL-60(TB) leukemia
[26] = test system: MCF7 breast
[27] = test system: MDA-MB-231 breast
[28] = test system: SNB-75 CNS
[29] = test system: HT29 colon
[30] = test system: OVCAR-3 ovarian
[31] = test system: T-47D breast
[32] = test system: SF-539 CNS
[33] = test system: DU-145 prostate
[34] = test system: NCI-H460 lung
[35] = test system: UO-31 renal
[36] = test system: RXF 393 renal
[37] = test system: BT-549 breast
[38] = test system: SK-OV-3 ovarian
[39] = test system: HCT-116 colon
[40] = test system: HOP-62 NSCLC
[41] = test system: MOLT-4 leukemia
[42] = test system: SK-MEL-28 melanoma
[43] = test system: COLO 205 colon
[44] = test system: K-562 leukemia
[45] = test system: OVCAR-4 ovarian
[46] = test system: M14 melanoma
[47] = test system: 786-0 renal
[48] = test system: SK-MEL-5 melanoma
[49] = test system: SK-MEL-2 melanoma
[50] = test system: OVCAR-5 ovarian
[51] = test system: ACHN renal
[52] = test system: IGROV1 ovarian
[53] = test system: RPMI-8226 leukemia
[54] = test system: HS 578T breast
[55] = test system: U251 CNS
[56] = test system: PC-3 prostate
[57] = test system: MALME-3M melanoma
[58] = test system: NCI-H23 lung

Q: What does the source list for COC(=O)c1ccc(C2SC(C)C(=O)N2NC(=O)C(O)c2ccccc2)cc1 (centres undefined)?
A: GI50 [1]: > 100 µM; TGI [1]: > 100 µM; GI50 [2]: > 100 µM; TGI [2]: > 100 µM; GI50 [3]: > 100 µM; TGI [3]: > 100 µM; GI50 [4]: > 100 µM; TGI [4]: > 100 µM; GI50 [5]: > 100 µM; TGI [5]: > 100 µM; GI50 [6]: > 100 µM; TGI [6]: > 100 µM; GI50 [7]: > 100 µM; TGI [7]: > 100 µM; GI50 [8]: > 100 µM; TGI [8]: > 100 µM; GI50 [9]: > 100 µM; TGI [9]: > 100 µM; GI50 [10]: > 100 µM; TGI [10]: > 100 µM; GI50 [11]: > 100 µM; TGI [11]: > 100 µM; GI50 [12]: > 100 µM; TGI [12]: > 100 µM; GI50 [13]: > 100 µM; TGI [13]: > 100 µM; GI50 [14]: > 100 µM; TGI [14]: > 100 µM; GI50 [15]: > 100 µM; TGI [15]: > 100 µM; GI50 [16]: > 100 µM; TGI [16]: > 100 µM; GI50 [17]: > 100 µM; TGI [17]: > 100 µM; GI50 [18]: > 100 µM; TGI [18]: > 100 µM; GI50 [19]: > 100 µM; TGI [19]: > 100 µM; GI50 [20]: > 100 µM; TGI [20]: > 100 µM; GI50 [21]: > 100 µM; TGI [21]: > 100 µM; GI50 [22]: > 100 µM; TGI [22]: > 100 µM; GI50 [23]: > 100 µM; TGI [23]: > 100 µM; GI50 [24]: > 100 µM; TGI [24]: > 100 µM; GI50 [25]: > 100 µM; TGI [25]: > 100 µM; GI50 [26]: > 100 µM; TGI [26]: > 100 µM; GI50 [27]: > 100 µM; TGI [27]: > 100 µM; GI50 [28]: > 100 µM; TGI [28]: > 100 µM; GI50 [29]: > 100 µM; TGI [29]: > 100 µM; GI50 [30]: > 100 µM; TGI [30]: > 100 µM; GI50 [31]: > 100 µM; TGI [31]: > 100 µM; GI50 [32]: > 100 µM; TGI [32]: > 100 µM; GI50 [33]: > 100 µM; TGI [33]: > 100 µM; GI50 [34]: > 100 µM; TGI [34]: > 100 µM; GI50 [35]: > 100 µM; TGI [35]: > 100 µM; GI50 [36]: > 100 µM; TGI [36]: > 100 µM; GI50 [37]: > 100 µM; TGI [37]: > 100 µM; GI50 [38]: > 100 µM; TGI [38]: > 100 µM; GI50 [39]: > 100 µM; TGI [39]: > 100 µM; GI50 [40]: > 100 µM; TGI [40]: > 100 µM; GI50 [41]: > 100 µM; TGI [41]: > 100 µM; GI50 [42]: > 100 µM; TGI [42]: > 100 µM; GI50 [43]: > 100 µM; TGI [43]: > 100 µM; GI50 [44]: > 100 µM; TGI [44]: > 100 µM; GI50 [45]: > 100 µM; TGI [45]: > 100 µM; GI50 [46]: > 100 µM; TGI [46]: > 100 µM; GI50 [47]: > 100 µM; TGI [47]: > 100 µM; GI50 [48]: > 100 µM; TGI [48]: > 100 µM; GI50 [49]: > 100 µM; TGI [49]: > 100 µM; GI50 [50]: > 100 µM; TGI [50]: > 100 µM; GI50 [51]: > 100 µM; TGI [51]: > 100 µM; GI50 [52]: > 100 µM; TGI [52]: > 100 µM; GI50 [53]: > 100 µM; TGI [53]: > 100 µM; GI50 [54]: > 100 µM; TGI [54]: > 100 µM; GI50 [55]: > 100 µM; TGI [55]: > 100 µM; GI50 [56]: > 100 µM; TGI [56]: > 100 µM

Q: With COc1ccc2c(c1OC)OC[C@@H](C1=CC(=O)C=C(O)C1=O)C2 as the molecule, how does the TGI [1] read?
A: 35.8 µM

Q: What about the TGI [2] of the same molecule?
A: 23.9 µM

Q: And the TGI [3]?
A: 37 µM

Q: And the TGI [4]?
A: 3.81 µM

Q: And the TGI [5]?
A: 4.12 µM

Q: What about the TGI [57] of the same molecule?
A: 24.7 µM

Q: What about the TGI [6] of the same molecule?
A: 13.1 µM

Q: What about the TGI [7] of the same molecule?
A: 27.3 µM

Q: And the TGI [8]?
A: 31 µM

Q: And the TGI [9]?
A: 26.1 µM

Q: What about the TGI [10] of the same molecule?
A: 79.1 µM

Q: And the TGI [11]?
A: 18.3 µM

Q: And the TGI [12]?
A: 19.2 µM

Q: What about the TGI [13] of the same molecule?
A: 69.3 µM

Q: What about the TGI [14] of the same molecule?
A: 46.7 µM

Q: And the TGI [15]?
A: 30.7 µM

Q: And the TGI [16]?
A: 25.1 µM

Q: And the TGI [17]?
A: 8.9 µM

Q: And the TGI [18]?
A: 38.1 µM

Q: And the TGI [19]?
A: 26.2 µM

Q: What about the TGI [21] of the same molecule?
A: 34.7 µM

Q: And the TGI [22]?
A: 32.3 µM

Q: And the TGI [23]?
A: 32.1 µM

Q: And the TGI [24]?
A: 27.5 µM

Q: And the TGI [25]?
A: 1.88 µM

Q: What about the TGI [26] of the same molecule?
A: 27 µM

Q: What about the TGI [27] of the same molecule?
A: 10.4 µM

Q: And the TGI [28]?
A: 23.6 µM

Q: And the TGI [29]?
A: 55.8 µM

Q: What about the TGI [30] of the same molecule?
A: 26.3 µM

Q: What about the TGI [31] of the same molecule?
A: 20.3 µM

Q: And the TGI [32]?
A: 26.8 µM

Q: And the TGI [33]?
A: 29.3 µM

Q: What about the TGI [34] of the same molecule?
A: 27.4 µM

Q: And the TGI [35]?
A: 25.9 µM

Q: What about the TGI [36] of the same molecule?
A: 19.1 µM

Q: What about the TGI [37] of the same molecule?
A: 26 µM

Q: And the TGI [38]?
A: 30.3 µM

Q: And the TGI [39]?
A: 17.4 µM

Q: And the TGI [40]?
A: 64.5 µM

Q: What about the TGI [41] of the same molecule?
A: 5.31 µM

Q: What about the TGI [42] of the same molecule?
A: > 58.5 µM

Q: What about the TGI [43] of the same molecule?
A: 43.3 µM

Q: What about the TGI [44] of the same molecule?
A: 11.8 µM

Q: And the TGI [45]?
A: 24.1 µM

Q: And the TGI [46]?
A: 26.8 µM

Q: And the TGI [47]?
A: 16.9 µM

Q: What about the TGI [58] of the same molecule?
A: 33.8 µM

Q: What about the TGI [48] of the same molecule?
A: 27 µM

Q: What about the TGI [49] of the same molecule?
A: 29 µM

Q: And the TGI [50]?
A: 40 µM

Q: What about the TGI [51] of the same molecule?
A: 11.3 µM

Q: And the TGI [52]?
A: 25.2 µM

Q: And the TGI [53]?
A: 5.18 µM

Q: And the TGI [54]?
A: 60.1 µM

Q: What about the TGI [55] of the same molecule?
A: 24.5 µM

Q: What about the TGI [56] of the same molecule?
A: 26.8 µM
